Measured values from patent US5476933A, “Azepine synthesis via a diels-alder reaction” (priority 1994, dated 1995).
Where two headings read alike, the source gives them in different places.

Columns and labels:
[1] = tested on: glycine binding site of the NMDA receptor; details: cited from earlier work; for affinity / antagonism at the glycine binding site, in words: literature
glycine/NMDA receptor = target: T1, glycine/NMDA receptor (Rattus norvegicus, UniProt P35439); experiment: electrophysiology using Xenopus oocytes; assay type: cell-based
T1 construct: expressed in transfected cells; host or cells: Xenopus oocytes (RNA injected)

male Swiss/Webster mice = experiment: maximum electroshock-induced seizure (MES) assay; assay type: in vivo, mouse; details: anticonvulsant, MES in mice; for ED50: Mus musculus, iv
Experimental: The anticonvulsant activity of the glycine antagonists may be assessed in the maximum electroshock-induced seizure (MES) assay in mice. […] The seizure stimulus parameters are 50 mA, 60 Hz, rectangular pulse, width 0.8 msec, duration 200 msec. Tonic hind limb extension observed after application of the electrical stimulus is recorded as occurrence of seizure.

[2] = literature; cited from earlier work
[3] = tested on: neurons in brain ischemia; details: literature; cited from earlier work
rodents = details: literature; cited from earlier work
[4] = target: T2, glycine binding site of the NMDA receptor (Rattus norvegicus, UniProt P35439); experiment: 1 μM glycine-stimulated [3H]-MK-801 binding, rat brain membrane homogenates; details: for IC50: rat brain homogenates, [3H]-MK-801 binding, 1 μM glycine; for activity (glycine receptor antagonism), in words: structure-activity statements
T2 construct: rat brain membrane homogenates which are enriched in NMDA receptors; tissue Pel-Freez, Rogers, Ark; host or cells: whole rat brain, washed membrane homogenate
Experimental: ^a Experiments described herein utilizing rat brain homogenates and a
The assay is conducted using rat brain membrane homogenates which are enriched in NMDA receptors. The membranes are prepared as follows. Frozen rat brains (obtained from Pel-Freez, Rogers, Ark.) are homogenized in 15 volumes (w/v) of ice cold 0.32M sucrose. The homogenate is spun at 1,000×g for ten minutes. The supernatant is collected and spun for 20 minutes at 44,000×g. The pellet is suspended in 15 volumes of water (relative to original brain weight). The homogenate is again spun at 44,000×g for twenty minutes. The pellet is resuspended in 5 volumes of water and the suspension is freeze-thawed 2 times. After the final thaw cycle, the suspension is brought to 15 volumes with water and spun at 44,000×g for twenty minutes. The pellet is resuspended in 5 volumes of ice-cold 10 mM HEPES, and is titrated to pH 7.4 with KOH containing 0.04% Triton X-100. Membranes are incubated with the Triton/HEPES buffer at 37° C. for 15 minutes. The volume is then brought to 15 with ice-cold 10 mM HEPES, pH 7.4, and spun/washed three times with spins of 44,000×g between washes. The final pellet is suspended in three volumes of 50 mM HEPES, pH 7.4 and the protein concentration is determined with a standard dye-binding protein assay (Bio-Rad, Richmond, Calif.). The suspension is stored at -80° C. until used. Only HPLC grade water is used for all buffers and suspensions/washings. The extensive washings are necessary to remove as much endogenous glycine from the membrane preparation as possible.
Nonspecific binding is defined as the […] presence of PCP (final concentration: 100 μM). […] A 500 nM concentration (final) of 5,7-dichlorokynurenic (DCK) acid is added to all assay tubes. This concentration of the glycine antagonist DCK "buffers" most of the residual endogenous glycine that is not removed by the extensive washing steps that are carried out during the membrane preparation procedure.
The assays are incubated for 120 minutes at room temperature after which time the membrane-bound radioactivity is isolated from the free radioactivity by vacuum filtration through Whatman glass fiber filters that had been pretreated with 0.3% polyethyleneimine. Filtration is accomplished using a Brandel 48 well cell harvester. Filtered membranes are washed three times with 3 mL each of ice cold buffer. Filters are transferred to scintillation vials and 5 mL of scintillation cocktail is added. The vials are shaken overnight and the radioactivity is counted by liquid scintillation spectroscopy. The assays are done in triplicate and all experiments are conducted at least three times.
Inhibition dose response curves are constructed using increasing concentrations of glycine antagonists from 5 nM to 330 μM.
After constructing inhibition dose response curves and determination of glycine reversibility, Ki values for the glycine antagonists are calculated using the Cheng and Prusoff equation employing the experimentally determined IC50 values, the known concentration of glycine in the assay (1 μM) and the known affinity of glycine for the glycine binding site of the NMDA receptor (100 nM).
Binding Assays and In Vivo Studies.

[5] = target: strychnine insensitive glycine site associated with the NMDA receptor complex; details: Swartz et al., cited from earlier work; for Kb: Mol. Pharmacol. 41:1130-1141 (1992), footnote d
[6] = target: strychnine insensitive glycine site associated with the NMDA receptor complex; details: rat brain homogenates, [3H]-glycine binding; footnote b; cited from earlier work
guinea pig ileum = guinea pig ileum contraction; footnote c; cited from earlier work
[7] = crossing of the blood/brain barrier; details: inferred from Ki and MES ED50
pigeons = details: literature; cited from earlier work
[8] = from electrophysiology using Xenopus oocytes unless otherwise noted, read-out: Ki

O=C(O)c1cc(O)c2c(Cl)cc(Cl)cc2n1 [5,7-dichlorokynurenic acid (DCK), 5,7-dichlorokynurenic acid]
affinity / antagonism at the glycine binding site, in words [1]: relatively high receptor binding affinity in vitro

O=c1[nH]c2cc(Cl)c(Cl)c([N+](=O)[O-])c2[nH]c1=O [6,7-dichloro-5-nitro-1,4-dihydroquinoxaline-2,3-dione]
Ki (glycine/NMDA receptor): 3.3 nM | ED50 (MES) (male Swiss/Webster mice): 4 to 5 mg/kg

O=C(O)c1cc(O)c2ccc(Cl)cc2n1 [7-Cl-kynurenic acid]
affinity / antagonism at the glycine binding site, in words [1]: relatively high receptor binding affinity in vitro | blood/brain barrier penetration, in words [2]: cannot penetrate the blood/brain barrier

O=C(O)[C@@H]1C[C@H](CP(=O)(O)O)CCN1 [CGS 19755]
neuroprotective efficacy, in words [3]: neuroprotective efficacy | PCP-like behavioral effects, in words (rodents): adverse PCP-like behavioral side effects

O=c1[nH]c2ccccc2c(=O)cc1O [Compound 1, 3-hydroxy-1H-1-benzazepine-2,5-dione]
IC50 ([4]; read-out: IC50): 7800 nM | Kb [5]: 3000 nM | antagonism, in words [5]: antagonists at the strychnine insensitive glycine site

Cc1ccc2[nH]c(=O)c(O)cc(=O)c2c1 [Compound 2]
Kb [5]: 9500 nM | antagonism, in words [5]: antagonists at the strychnine insensitive glycine site

Cc1ccc2c(=O)cc(O)c(=O)[nH]c2c1 [Compound 3]
IC50 ([4]; read-out: IC50): 3400 nM | activity (glycine receptor antagonism), in words [4]: enhanced activity | Kb [5]: 470 nM | antagonism, in words [5]: antagonists at the strychnine insensitive glycine site

O=c1[nH]c2cc(F)ccc2c(=O)cc1O [Compound 5]
IC50 ([4]; read-out: IC50): 1700 nM | activity (glycine receptor antagonism), in words [4]: enhanced activity

O=c1[nH]c2cc(Cl)ccc2c(=O)cc1O [Compound 6]
IC50 ([4]; read-out: IC50): 2500 nM | activity (glycine receptor antagonism), in words [4]: enhanced activity | IC50 [6]: 30 nM | IC50 (guinea pig ileum): 110 nM

O=c1[nH]c2cc(Br)ccc2c(=O)cc1O [Compound 7]
IC50 ([4]; read-out: IC50): 1300 nM | activity (glycine receptor antagonism), in words [4]: enhanced activity | IC50 [6]: 97 nM | IC50 (guinea pig ileum): 1000 nM

O=c1[nH]c2ccc([N+](=O)[O-])cc2c(=O)cc1O [Compound 11]
IC50 ([4]; read-out: IC50): 300000 nM

CC(=O)Nc1ccc2[nH]c(=O)c(O)cc(=O)c2c1 [Compound 12]
IC50 ([4]; read-out: IC50): 92500 nM

O=C(Nc1ccc2[nH]c(=O)c(O)cc(=O)c2c1)C(F)(F)F [Compound 13]
IC50 [4]: Inactive

[N-]=[N+]=Nc1ccc2[nH]c(=O)c(O)cc(=O)c2c1 [Compound 14]
IC50 [4]: Inactive

O=c1[nH]c2ccc(Br)cc2c(=O)cc1O [Compound 15]
IC50 [4]: Inactive

O=c1[nH]c2cc(C(F)(F)F)ccc2c(=O)cc1O [Compound 16]
IC50 ([4]; read-out: IC50): 3400 nM | activity (glycine receptor antagonism), in words [4]: enhanced activity

Cc1cccc2c(=O)cc(O)c(=O)[nH]c12 [Compound 43, 3-Hydroxy-9-methyl-1H-1-benzazepine-2,5-dione]
IC50 [4]: inactive

Cc1cc(C)c2[nH]c(=O)c(O)cc(=O)c2c1 [Compound 44, 3-Hydroxy-7,9-dimethyl-1H-1-benzazepine-2,5-dione]
IC50 [4]: inactive

Cc1ccc(C)c2c(=O)cc(O)c(=O)[nH]c12 [Compound 45, 3-Hydroxy-6,9-dimethyl-1H-1-benzazepine-2,5-dione]
IC50 [4]: inactive

Cc1cc2[nH]c(=O)c(O)cc(=O)c2cc1C [Compound 46, 3-Hydroxy-7,8-dimethyl-1-benzazepine-2,5-dione]
IC50 ([4]; read-out: IC50): 7300 nM

O=c1cc(O)c(=O)[nH]c2c1CCCC2 [Compound 61, 3-Hydroxy-6,7,8,9-tetrahydro-1H-1-benzazepine-2,5-dione]
IC50 ([4]; read-out: IC50): 34000 nM | Ki (glycine/NMDA receptor; [8]): 1650 nM | ED50 (male Swiss/Webster mice): 8 mg/kg | crossing the blood-brain-barrier, relative to 6,7-dichloro-5-nitro-1,4-dihydroquinoxaline-2,3-dione [7]: about 100 times

O=c1cc(O)c(=O)[nH]c2c1C1CCC2C1 (stereo not shown) [Compound 70, 3-hydroxy-6,9-methano-6,7,8,9-tetrahydro-1H-1-benzazepine-2,5-dione]
Ki ([4]; from binding assays (footnote d of Table 2)): 760 nM | IC50 ([4]; read-out: IC50): 8400 nM

O=c1cc(O)c(=O)[nH]c2c1CC(Cl)C(Cl)C2 (stereo not shown) [Compound 74, 3-Hydroxy-7,8-dichloro-6,7,8,9-tetrahydro-1H-1-benzazepine-2,5-dione]
IC50 ([4]; read-out: IC50): 3600 nM | Ki (glycine/NMDA receptor; [8]): 30 nM | ED50 (male Swiss/Webster mice): 30 mg/kg

CC1Cc2[nH]c(=O)c(O)cc(=O)c2CC1C (stereo not shown) [Compound 81, 7,8-dimethyl-3-hydroxy-6,7,8,9-tetrahydro-1H-1-benzazepine-2,5-dione]
IC50 ([4]; read-out: IC50): 9280 nM | Ki (glycine/NMDA receptor; [8]): 177 nM | ED50 (male Swiss/Webster mice): 6 mg/kg

O=c1cc(O)c(=O)[nH]c2c1C1CCC2CC1 [Compound 87, 6,9-Ethano-3-hydroxy-6,7,8,9-tetrahydro-1H-1-benzazepine-2,5-dione]
IC50 ([4]; read-out: IC50): 6700 nM | Ki (glycine/NMDA receptor; [8]): 332 nM | ED50 (male Swiss/Webster mice): 8 mg/kg

Cc1cccc2[nH]c(=O)c(O)cc(=O)c12 [Compound 93, 3-Hydroxy-6-methyl-1H-1-benzazepine-2,5-dione]
IC50 ([4]; read-out: IC50): 196000 nM

Cc1cc(C)c2c(=O)cc(O)c(=O)[nH]c2c1 [Compound 97, 6,8-Dimethyl-3-hydroxy-1H-1-benzazepine-2,5-dione]
IC50 ([4]; read-out: IC50): 26000 nM

Cc1cc2[nH]c(=O)c(O)cc(=O)c2c(C)c1[N+](=O)[O-] [Compound 99, 6,8-Dimethyl-3-hydroxy-7-nitro-1H-1-benzazepine-2,5-dione]
IC50 ([4]; read-out: IC50): 69500 nM

Cc1ccc2[nH]c(=O)c(O)cc(=O)c2c1C [Compound 109, 6,7-dimethyl-3-hydroxy-1H-1-benzazepine-2,5-dione]
IC50 [4]: inactive

CC1c2c([nH]c(=O)c(O)cc2=O)CC(Cl)C1Cl (stereo not shown) [Compound 112, 7,8-dichloro-3-hydroxy-6-methyl-6,7,8,9-tetrahydro,1H-1-benzazepine-2,5-dione]
IC50 ([4]; read-out: IC50): 380 nM | Ki (glycine/NMDA receptor; [8]): 7 nM

NC1CCN(O)C1=O (stereo not shown) [HA-966]
affinity / antagonism at the glycine binding site, in words [1]: partial agonist with micromolar affinity for the glycine binding site | blood/brain barrier penetration, in words [2]: sufficiently penetrates the blood/brain barrier

O=C(O)C1CC2CC(CP(=O)(O)O)CCC2CN1 (stereo not shown) [LY274614]
neuroprotective efficacy, in words [3]: neuroprotective efficacy

c1ccc(C2(N3CCCCC3)CCCCC2)cc1 [PCP, phencyclidine]
neuroprotective efficacy, in words [3]: neuroprotective efficacy both in vitro and in vivo | PCP-like behavioral effects, in words (rodents): behavioral excitation (hyperlocomotion) | katalepsy, in words (pigeons): characteristic katalepsy in pigeons

NCC(=O)O [glycine]
Kd ([1]; used in Cheng and Prusoff equation, read-out: known affinity of glycine for the glycine binding site of the NMDA receptor): 100 nM

O=C(O)c1cc2ccccc2[nH]1 [indole-2-carboxylic acid]
affinity / antagonism at the glycine binding site, in words [1]: relatively high receptor binding affinity in vitro | blood/brain barrier penetration, in words [2]: cannot penetrate the blood/brain barrier
